From patent US20030143729A1 (Synaptic Pharmaceutical Corporation, priority 1992, published 2003)
Read-outs that look alike come from different tables or passages of the source.

Legend:
TAUT = molecular target: T1, TAUT (Rattus norvegicus, UniProt P31643); assay: [3H]taurine uptake, full competition curves at cloned TAUT (transient transfection, COS cells); format: cell-based
T1 sequence (P31643 1-621): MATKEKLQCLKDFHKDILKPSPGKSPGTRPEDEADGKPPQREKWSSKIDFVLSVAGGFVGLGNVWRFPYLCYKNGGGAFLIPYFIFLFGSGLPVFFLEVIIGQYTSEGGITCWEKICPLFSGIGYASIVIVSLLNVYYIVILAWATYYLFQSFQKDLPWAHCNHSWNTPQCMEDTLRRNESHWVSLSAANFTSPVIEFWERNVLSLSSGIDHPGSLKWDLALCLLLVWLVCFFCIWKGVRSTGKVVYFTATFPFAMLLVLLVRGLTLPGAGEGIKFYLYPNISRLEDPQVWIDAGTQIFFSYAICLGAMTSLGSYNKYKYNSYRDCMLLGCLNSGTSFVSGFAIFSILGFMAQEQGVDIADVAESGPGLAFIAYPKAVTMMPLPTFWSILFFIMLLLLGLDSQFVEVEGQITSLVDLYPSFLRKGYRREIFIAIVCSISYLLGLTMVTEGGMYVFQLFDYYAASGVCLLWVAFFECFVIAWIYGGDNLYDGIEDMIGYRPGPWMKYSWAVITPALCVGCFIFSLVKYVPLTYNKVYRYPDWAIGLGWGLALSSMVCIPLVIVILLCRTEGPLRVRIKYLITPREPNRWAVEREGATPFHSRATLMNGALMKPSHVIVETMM

GAT-1 = molecular target: T2, GAT-1 (Rattus norvegicus, UniProt P23978); assay: [3H]GABA uptake by COS-7 cells transfected with GAT-1 (rB46a); format: cell-based
T2 construct: expressed in transfected cells; host or cells: COS-7 cells, transient (DEAE-dextran)

GAT-2 = molecular target: T3, GAT-2 (Rattus norvegicus, UniProt P31646); assay: [3H]GABA uptake by COS cells transfected with GAT-2 (rB14b); format: cell-based
T3 construct: randomly primed GAT-2 full-length or GAT-3 truncated or full-length cDNA clones; expressed in transfected cells; host or cells: COS cells, transient, plasmid pEVJB-rB14b
T3 sequence (P31646 1-602): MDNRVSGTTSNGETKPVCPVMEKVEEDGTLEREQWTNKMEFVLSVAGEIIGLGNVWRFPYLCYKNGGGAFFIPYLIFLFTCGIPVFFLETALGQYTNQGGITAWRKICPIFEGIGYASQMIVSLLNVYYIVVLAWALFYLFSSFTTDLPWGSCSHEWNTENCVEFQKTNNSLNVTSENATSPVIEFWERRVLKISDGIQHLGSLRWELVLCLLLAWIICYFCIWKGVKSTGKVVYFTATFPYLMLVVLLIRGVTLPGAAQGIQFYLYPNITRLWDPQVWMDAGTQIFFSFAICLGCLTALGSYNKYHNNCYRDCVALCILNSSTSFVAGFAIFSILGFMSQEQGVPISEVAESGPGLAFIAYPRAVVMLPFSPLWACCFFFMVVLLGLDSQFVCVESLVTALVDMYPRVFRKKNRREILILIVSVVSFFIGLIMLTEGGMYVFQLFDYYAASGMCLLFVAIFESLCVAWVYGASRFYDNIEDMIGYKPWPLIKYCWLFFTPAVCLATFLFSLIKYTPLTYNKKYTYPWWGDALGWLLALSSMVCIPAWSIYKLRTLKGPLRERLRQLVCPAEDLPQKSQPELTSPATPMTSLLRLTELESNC

O-2A/Type 2 astrocytes = assay: [3H]GABA uptake in O-2A/Type 2 astrocyte cultures; format: cell-based, rat
Experimental: (§1) Preparation of primary rat astrocyte cell cultures: Primary glial cultures were established from newborn Sprague-Dawley rat brains. Brains minus cerebella were removed aseptically and carefully dissected free of meninges. […] The cells were dissociated by trituration through a serological pipette. Separate procedures were then used for the preparation of Type-1 and O-2A/Type-2 astrocyte cultures, as will now be described.
(§2) For the preparation of Type-1 astrocyte cultures, cells were plated onto uncoated 75 cm^2 flasks at low density (1 brain per 10 flasks, or approximately 8×10^4 cells/cm^2). The medium was changed the following day and twice a week thereafter. […] Cultures highly enriched in O-2A/Type-2 cells were prepared from mixed astrocyte cultures which consisted of a monolayer of Type 1 cells upon which rested large numbers of O-2A/Type 2 cells. […] The same brain cell suspensions as described above were plated at high density (1 brain per 75 cm^2 flask, or approximately 8×10^5 cells/cm^2) into flasks coated with poly-D-lysine (10 μg/ml). After 24 hours the medium was replaced and the cultures were subsequently fed twice a week. […] Complete medium was added to the flasks and the cell suspension was removed gently, care being taken to not disrupt the underlying Type 1 astrocyte monolayer. The cells were pelleted at low speed, resuspended in complete medium, and added to 24-well plates coated with poly-D-lysine (10 μg/ml). […] No attempt was made to distinguish or separate O-2A precursors from the more differentiated Type 2 astrocytes.

GAT-3 = molecular target: T4, GAT-3 (Rattus norvegicus, UniProt P31647); assay: [3H]GABA uptake by COS cells transfected with GAT-3 (rB8b or K438-rB8b); format: cell-based
T4 sequence (P31647 1-627): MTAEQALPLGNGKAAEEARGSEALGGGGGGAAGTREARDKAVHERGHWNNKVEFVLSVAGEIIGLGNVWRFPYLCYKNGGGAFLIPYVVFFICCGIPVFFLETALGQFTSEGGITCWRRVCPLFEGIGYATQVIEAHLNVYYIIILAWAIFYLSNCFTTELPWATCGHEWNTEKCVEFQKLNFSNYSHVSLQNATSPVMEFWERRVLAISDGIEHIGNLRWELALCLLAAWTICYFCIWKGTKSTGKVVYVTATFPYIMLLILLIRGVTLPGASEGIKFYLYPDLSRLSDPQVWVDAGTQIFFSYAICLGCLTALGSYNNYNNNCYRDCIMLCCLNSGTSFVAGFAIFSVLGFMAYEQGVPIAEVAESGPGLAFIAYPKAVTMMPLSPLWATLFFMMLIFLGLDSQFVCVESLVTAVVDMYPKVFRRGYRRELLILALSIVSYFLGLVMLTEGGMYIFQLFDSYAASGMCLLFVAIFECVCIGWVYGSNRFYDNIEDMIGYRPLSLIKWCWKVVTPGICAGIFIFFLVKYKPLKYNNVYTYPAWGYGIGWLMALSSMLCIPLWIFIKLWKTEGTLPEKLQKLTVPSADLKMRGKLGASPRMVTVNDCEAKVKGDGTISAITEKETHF

Type 1 astrocytes = assay: [3H]GABA uptake in Type 1 astrocyte cultures; format: cell-based, rat; settings: read-out: IC50 for inhibition of [3H]GABA uptake, Type 1 astrocytes
Experimental: as §1, §2

[1] = COS-7, read-out: % Inhibition of [3H]GABA uptake, GAT-1
[2] = COS, read-out: % Inhibition of [3H]GABA uptake, GAT-2
[3] = Rattus norvegicus, Astrocyte, 3 h, read-out: IC50 for inhibition of [3H]GABA uptake, O-2A/Type 2 astrocytes with NNC-711, in the presence of 10 μM NNC-711
[4] = Rattus norvegicus, Astrocyte, 3 h, read-out: IC50 for inhibition of [3H]GABA uptake, O-2A/Type 2 astrocytes, absence of NNC-711
[5] = COS, read-out: % Inhibition of [3H]GABA uptake, GAT-3
[6] = Rattus norvegicus, Astrocyte, 3 h
[7] = full competition curves, 50 nM [3H]taurine, read-out: IC50 for inhibition of [3H]taurine uptake, TAUT (Table 8)
[8] = various concentrations of [3H]GABA, 30 seconds
[9] = read-out: IC50 for inhibition of [3H]GABA uptake, O-2A/Type 2 astrocytes with NNC-711, in the presence of 10 μM NNC-711
[10] = read-out: IC50 for inhibition of [3H]GABA uptake, O-2A/Type 2 astrocytes, absence of NNC-711
[11] = inhibitor 10 μM, 50 nM [3H]GABA, 10 minutes, 37° C.

Compound	inhibition at 100 µM (GAT-1; [1]) [%]	inhibition at 100 µM (GAT-2; [2]) [%]	IC50 (O-2A/Type 2 astrocytes; [3]) [µM]	IC50 (O-2A/Type 2 astrocytes; [4]) [µM]	inhibition at 100 µM (GAT-3; [5]) [%]	IC50 (Type 1 astrocytes; [6]) [µM]	IC50 (TAUT; [7]) [µM]	IC50 (O-2A/Type 2 astrocytes; [9]) [µM]	IC50 (O-2A/Type 2 astrocytes; [10]) [µM]	IC50 (Type 1 astrocytes) [µM]	also measured
N[C@@H]1CCC[C@H](C(=O)O)C1 (relative stereo) [ACHC, cis-3-aminocyclohexanecarboxylic acid]	49 ± 10	3 ± 3	2360	~35	0	400 ± 200					IC50 (TAUT): 9230 µM; IC50 (O-2A/Type 2 astrocytes; Rattus norvegicus, Astrocyte, read-out: IC50 for GABA transport, O-2A/Type 2 astrocytes, in the presence of 10 μM NNC-711): ~2000 µM
NCCCC(=O)O [GABA, gamma-aminobutyric acid]							720 ± 170				VMAX of GABA transport, COS/rB14b (GAT-2) (GAT-2; [8]): 2.5±1.2 nmoles/mg protein; VMAX of GABA transport, COS/rB8b and/or COS/K438-rB8b (GAT-3) (GAT-3; [8]): 3.0±0.9 nmoles/mg protein
N=C(N)NCCS(=O)(=O)O [GES, guanidinoethanesulfonic acid]							129	603 ± 300	1560	310 ± 60	
NCC[C@H](N)C(=O)O [L-DABA, L-(2,4)diaminobutyric acid]	49 ± 8	43 ± 8	91 ± 30	74	4 ± 1	3460					IC50 (TAUT): 41800 µM
O=C(O)C1=CCCN(CCON=C(c2ccccc2)c2ccccc2)C1 [NNC-711]							207		0.07	2 ± 0.3	specific [3H]GABA uptake that persisted, O-2A/Type 2 astrocytes (O-2A/Type 2 astrocytes; NNC-711 at 10 μM): 26±4%
O=C(O)C1=CCCNC1 [guvacine]						23 ± 10	1030				inhibition at 10 µM (GAT-1; [1]): 41 ± 3%; inhibition at 10 µM (GAT-2; [2]): 13 ± 1%; IC50 (O-2A/Type 2 astrocytes; Rattus norvegicus, Astrocyte, 3 h, read-out: IC50 for inhibition of [3H]GABA uptake, O-2A/Type 2 astrocytes): 8 ± 0.9 µM; inhibition at 10 µM (GAT-3; [5]): 8 ± 5%
NCCS(=O)O [hypotaurine]			29 ± 15	620		69 ± 30	47				
NCCS(=O)(=O)O [taurine, 2-aminoethanesulfonic acid]				13000			48 ± 11				
NCCC(=O)O [β-alanine]	11 ± 1	86 ± 1	~25	2030	70 ± 1	100 ± 30	176	24 ± 8			IC50 (O-2A/Type 2 astrocytes; Rattus norvegicus, Astrocyte, read-out: IC50 for GABA transport, O-2A/Type 2 astrocytes): ~2000 µM
hydroxynipecotic acid [OH-nipecotic]							4810	197 ± 20	17 ± 3	1610	% Inhibition of [3H]GABA uptake, GAT-1 (GAT-1; [11]): 34 ± 5 (3) %; % Inhibition of [3H]GABA uptake, GAT-2 (GAT-2; [11]): 9 ± 7 (3) %; % Inhibition of [3H]GABA uptake, GAT-3 (GAT-3; [11]): 5 ± 2 (3) %
